# Experimental data published in patent US8710043B2, “TRPM8 antagonists and their use in treatments” (Amgen Inc., priority 2011, dated 2014).
# Target: T1, human TRPM8 (Homo sapiens, UniProt Q7Z2W7)
# T1 construct: expressed in transfected cells; host or cells: Chinese hamster ovary (CHO) cells, T-REx tetracycline-inducible system, co-transfected with aequorin
# Assay: Luminescence readout assay for measuring intracellular calcium, icilin activation
# Format: cell-based
# Conditions: CHO cells expressing human TRPM8, aequorin luminescence, 1 μM icilin activation; read-out: hTRPM8 IC50
# In short: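 The read-out was luminescence reporting intracellular calcium, recorded by a CCD-based luminometer. Compounds were preincubated for 2.5 min before agonist challenge with 1 μM icilin. Human TRPM8 was expressed in a stable T-REx CHO line, induced with 0.5 μg/mL tetracycline the day before.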
# T1 sequence (Q7Z2W7 whole entry): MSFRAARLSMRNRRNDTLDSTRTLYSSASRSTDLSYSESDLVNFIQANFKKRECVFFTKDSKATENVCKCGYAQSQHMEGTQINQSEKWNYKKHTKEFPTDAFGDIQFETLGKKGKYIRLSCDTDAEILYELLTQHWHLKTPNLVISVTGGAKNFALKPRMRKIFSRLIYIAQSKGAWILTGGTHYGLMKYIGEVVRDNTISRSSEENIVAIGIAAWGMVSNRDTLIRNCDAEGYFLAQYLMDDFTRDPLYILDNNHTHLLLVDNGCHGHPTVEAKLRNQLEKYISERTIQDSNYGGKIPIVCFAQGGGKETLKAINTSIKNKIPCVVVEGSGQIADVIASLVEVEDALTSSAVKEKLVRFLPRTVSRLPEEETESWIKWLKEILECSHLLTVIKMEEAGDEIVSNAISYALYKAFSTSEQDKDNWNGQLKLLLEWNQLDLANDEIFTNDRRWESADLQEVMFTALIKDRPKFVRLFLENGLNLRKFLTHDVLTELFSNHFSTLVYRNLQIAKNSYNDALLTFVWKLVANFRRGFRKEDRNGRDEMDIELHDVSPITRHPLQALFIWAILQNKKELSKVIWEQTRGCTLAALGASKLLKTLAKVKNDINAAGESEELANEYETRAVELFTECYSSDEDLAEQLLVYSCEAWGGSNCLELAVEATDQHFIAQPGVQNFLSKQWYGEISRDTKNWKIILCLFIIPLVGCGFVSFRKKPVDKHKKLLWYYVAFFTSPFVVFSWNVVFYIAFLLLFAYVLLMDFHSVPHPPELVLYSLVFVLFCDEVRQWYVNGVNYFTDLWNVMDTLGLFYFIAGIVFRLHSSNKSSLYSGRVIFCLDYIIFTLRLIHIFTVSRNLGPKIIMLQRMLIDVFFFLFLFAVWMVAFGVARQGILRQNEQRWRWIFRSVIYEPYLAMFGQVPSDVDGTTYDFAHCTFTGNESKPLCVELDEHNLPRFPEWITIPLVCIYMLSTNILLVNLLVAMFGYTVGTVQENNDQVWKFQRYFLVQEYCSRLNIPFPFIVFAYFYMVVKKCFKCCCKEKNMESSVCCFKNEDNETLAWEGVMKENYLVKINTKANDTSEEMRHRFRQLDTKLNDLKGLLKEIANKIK
row,IC50 [nM],Structure (SMILES)
1,1610,"O=C(Cc1cccnc1)N[C@@H](c1ccc(OC(F)(F)F)c(F)c1)c1ncccc1F [Example 289, (S)-N-((3-fluoro-4-(trifluoromethoxy)phenyl)(3-fluoropyridin-2-yl)methyl)-2-(pyridin-3-yl)acetamide]"
2,944,"O=C(Cc1ccncc1)N[C@@H](c1ccc(OC(F)(F)F)c(F)c1)c1ncccc1F [Example 290, (S)-N-((3-fluoro-4-(trifluoromethoxy)phenyl)(3-fluoropyridin-2-yl)methyl)-2-(pyridin-4-yl)acetamide]"
3,332,"O=C(N[C@@H](c1ccc(C(F)(F)F)cc1)c1nc(F)ccc1F)c1ccc(=O)[nH]c1 [Example 291, (S)-N-((3,6-difluoropyridin-2-yl)(4-(trifluoromethyl)phenyl)methyl)-6-oxo-1,6-dihydropyridine-3-carboxamide]"
4,52.4,"O=C(N[C@@H](c1ccc(OC(F)(F)F)c(F)c1)c1ccc(F)cn1)c1ccc(=O)[nH]c1 [Example 292, (S)-N-((3-fluoro-4-(trifluoromethoxy)phenyl)(5-fluoropyridin-2-yl)methyl)-6-oxo-1,6-dihydropyridine-3-carboxamide]"
5,14.5,"Cn1cc(C(=O)N[C@@H](c2ccc(OC(F)(F)F)c(F)c2)c2ccccn2)ccc1=O [Example 294, (S)-N-((3-fluoro-4-(trifluoromethoxy)phenyl)(pyridin-2-yl)methyl)-1-methyl-6-oxo-1,6-dihydropyridine-3-carboxamide]"
6,23.1,"Cn1cc(C(=O)N[C@@H](c2ccc(OC(F)(F)F)c(F)c2)c2ccccc2F)ccc1=O [Example 296, (S)-N-((3-fluoro-4-(trifluoromethoxy)phenyl)(2-fluorophenyl)methyl)-1-methyl-6-oxo-1,6-dihydropyridine-3-carboxamide]"
7,36.1,"C[C@H](O)Cn1cc(C(=O)N[C@@H](c2ccc(OC(F)(F)F)c(F)c2)c2ncccc2F)ccc1=O [Example 298, N-((S)-(3-fluoro-4-(trifluoromethoxy)phenyl)(3-fluoropyridin-2-yl)methyl)-1-((S)-2-hydroxypropyl)-6-oxo-1,6-dihydropyridine-3-carboxamide]"
8,69.7,"C[C@H](O)Cn1cc(C(=O)N[C@@H](c2ccc(C(F)(F)F)cc2)c2ncccc2F)ccc1=O [Example 300, N-((S)-(3-fluoropyridin-2-yl)(4-(trifluoromethyl)phenyl)methyl)-1-((S)-2-hydroxypropyl)-6-oxo-1,6-dihydropyridine-3-carboxamide]"
9,41.7,"C[C@@H](O)Cn1cc(C(=O)N[C@@H](c2ccc(C(F)(F)F)cc2)c2ncccc2F)ccc1=O [Example 301, N-((S)-(3-fluoropyridin-2-yl)(4-(trifluoromethyl)phenyl)methyl)-1-((R)-2-hydroxypropyl)-6-oxo-1,6-dihydropyridine-3-carboxamide]"
10,70.9,"CC(C)(O)Cn1cc(C(=O)N[C@@H](c2ccc(OC(F)(F)F)c(F)c2)c2ncccc2F)ccc1=O [Example 302, (S)-N-((3-fluoro-4-(trifluoromethoxy)phenyl)(3-fluoropyridin-2-yl)methyl)-1-(2-hydroxy-2-methylpropyl)-6-oxo-1,6-dihydropyridine-3-carboxamide]"
11,143,"CC(C)(O)Cn1cc(C(=O)N[C@@H](c2ccc(C(F)(F)F)cc2)c2ncccc2F)ccc1=O [Example 303, (S)-N-((3-fluoropyridin-2-yl)(4-(trifluoromethyl)phenyl)methyl)-1-(2-hydroxy-2-methylpropyl)-6-oxo-1,6-dihydropyridine-3-carboxamide]"
12,14.4,"O=C(N[C@@H](c1ccc(OC(F)(F)F)c(F)c1)c1ncccc1F)c1ccc(=O)n(C2COC2)c1 [Example 304, (S)-N-((3-fluoro-4-(trifluoromethoxy)phenyl)(3-fluoropyridin-2-yl)methyl)-1-(oxetan-3-yl)-6-oxo-1,6-dihydropyridine-3-carboxamide]"
13,29.6,"O=C(N[C@@H](c1ccc(C(F)(F)F)cc1)c1ncccc1F)c1ccc(=O)n(C2COC2)c1 [Example 305, (S)-N-((3-fluoropyridin-2-yl)(4-(trifluoromethyl)phenyl)methyl)-1-(oxetan-3-yl)-6-oxo-1,6-dihydropyridine-3-carboxamide]"
14,45.4,"O=C(N[C@@H](c1ccc(C(F)(F)F)cc1)c1ncccc1F)c1ccc2nnnn2c1 [Example 307, (S)-N-((3-fluoropyridin-2-yl)(4-(trifluoromethyl)phenyl)methyl)tetrazolo[1,5-a]pyridine-6-carboxamide]"
15,26.9,"O=C(N[C@@H](c1ccc(C(F)(F)F)cc1)c1ncccc1F)c1ccn2nnnc2c1 [Example 308, (S)-N-((3-fluoropyridin-2-yl)(4-(trifluoromethyl)phenyl)methyl)tetrazolo[1,5-a]pyridine-7-carboxamide]"
16,30.8,"O=C(N[C@@H](c1ccc(OC(F)(F)F)cc1)c1ncccc1F)c1ccc2nnnn2c1 [Example 309, (S)-N-((3-fluoropyridin-2-yl)(4-(trifluoromethoxy)phenyl)methyl)tetrazolo[1,5-a]pyridine-6-carboxamide]"
17,16,"O=C(N[C@@H](c1ccc(OC(F)(F)F)cc1)c1ncccc1F)c1ccn2nnnc2c1 [Example 310, (S)-N-((3-fluoropyridin-2-yl)(4-(trifluoromethoxy)phenyl)methyl)tetrazolo[1,5-a]pyridine-7-carboxamide]"
18,27.8,"O=C(N[C@@H](c1ccc(C(F)(F)F)cc1)c1ncccc1C(F)(F)F)c1ccc2nnnn2c1 [Example 311, (S)-N-((4-(trifluoromethyl)phenyl)(3-(trifluoromethyl)pyridin-2-yl)methyl)tetrazolo[1,5-a]pyridine-6-carboxamide]"
19,25.2,"O=C(N[C@@H](c1ccc(C(F)(F)F)cc1)c1ncccc1C(F)(F)F)c1ccn2nnnc2c1 [Example 312, (S)-N-((4-(trifluoromethyl)phenyl)(3-(trifluoromethyl)pyridin-2-yl)methyl)tetrazolo[1,5-a]pyridine-7-carboxamide]"
20,25.9,"Cc1cccnc1[C@@H](NC(=O)c1ccc2[nH]c(=O)oc2c1)c1ccc(C(F)(F)F)cc1 [Example 313, (S)-N-((3-methylpyridin-2-yl)(4-(trifluoromethyl)phenyl)methyl)-2-oxo-2,3-dihydrobenzo[d]oxazole-6-carboxamide]"
21,21.8,"Cc1cccnc1[C@@H](NC(=O)c1ccc2nccn2c1)c1ccc(C(F)(F)F)cc1 [Example 314, (S)-N-((3-methylpyridin-2-yl)(4-(trifluoromethyl)phenyl)methyl)imidazo[1,2-a]pyridine-6-carboxamide]"
22,36.3,"O=C(N[C@@H](c1ccc(C(F)(F)F)cc1)c1ncccc1F)c1ccc(-c2nc(=O)o[nH]2)cc1 [Example 315, (S)-N-((3-fluoropyridin-2-yl)(4-(trifluoromethyl)phenyl)methyl)-4-(5-oxo-2,5-dihydro-1,2,4-oxadiazol-3-yl)benzamide]"
23,31.4,"O=C(N[C@@H](c1ccc(OC(F)(F)F)cc1)c1ncccc1F)c1ccc(-c2nc(=O)o[nH]2)cc1 [Example 316, (S)-N-((3-fluoropyridin-2-yl)(4-(trifluoromethoxy)phenyl)methyl)-4-(5-oxo-2,5-dihydro-1,2,4-oxadiazol-3-yl)benzamide]"
